Results: patent US10688032B2, “Emulsions having UV sunscreen factors and carnosines” (Symrise AG, priority 2015, dated 2020)

Tests used:
[1] = test system: human fibroblasts and human keratinocytes; assay: Inhibition of apoptosis induced by a deficiency of growth factors (cell count, BrdU ELISA of cytoplasmic DNA fragments); assay type: cell-based; details: for Content of DNA fragments / Cell count: conc. 0.001 % w/v; for Content of DNA fragments: BrdU in cytoplasmic DNA fragments, based on a million cells, control = 100; for Cell count: medium without fetal calf serum, in comparison to the control = 100
Procedure: The ability of carnosines to prevent apoptosis induced by a deficiency of growth factors in human skin cells was studied. These tests were carried out in vitro on human fibroblasts and human keratinocytes. The human cells were cultivated in a nutrient medium (DMEM=Dulbecco minimum essential medium from Life Technologie Sarl) with 10% fetal calf serum (from Dutcher). Bromodeoxyuridine (BrdU) was added to the nutrient medium; it was incorporated into the DNA and later served for detection of the DNA fragments in the cytoplasm. After an incubation period of two days, the nutrient medium was replaced by nutrient medium (DMEM) without fetal calf serum. The active substance to be tested was added. For comparison, a cell sample without active substance to be tested was incubated.
After a further incubation period of one or two days at 37° C., the cells were recovered by trypsinization according to the method of Dunnebacke and Zitcer described in: Cell and tissue culture, Ed.: J. Paul, Churchill Livingstone, 1975, p. 226. After the trypsinization, the cells were centrifuged and counted. Then the content of BrdU in the DNA fragments from the cytoplasm was determined by means of the ELISA test (ELISA kit from Roche). The content of BrdU is a measure of the DNA fragments which have passed from the nucleus, the cell core, into the cytoplasm. The results were based on a million cells and given in percent in comparison to the control.

human fibroblasts [2] = assay: DNA content of human fibroblasts (Desaulniers method); assay type: cell-based; details: conc. 0.001 % w/v, compared to blank sample = 100
Procedure: G6PDH activity was determined in vitro on human fibroblasts by the enzymatic method of Okada, while the DNA content was determined by the Desaulniers method. The results of 3 series of measurements with triple determination are given in %-rel. compared to a blank sample.

human fibroblasts [3] = assay: Stimulation of the synthesis of dermal macromolecules (GAG) in collagen gel containing human fibroblasts; assay type: cell-based; details: 0.5% by weight FCS + 0.01% by weight substance; for Area 7 days / Area 14 days / Density 14 days: collagen gel; for Density 14 days: relative density 0=clear or white, 1=black; for GAG content 7 days / GAG content 14 days: relative value of the gray stage (0=white to 255=black), perifibroblast area
Procedure: The measuring method is based on staining macromolecules in a culture of human fibroblasts which, with type I collagen, forms a collagen gel or collagen lattice fibers. Certain regions of those fibers are quantified by means of staining reagents for the proportion of the mentioned macromolecules.
For that purpose, a suspension of human fibroblasts was mixed with a solution of type I collagen (1-2 mg/ml). This mixture was incubated in a defined nutrient medium (DMEM=Dulbecco minimum essential medium, Life Technologie Sarl) comprising 0.5 or 2% by weight fetal calf serum (FCS) for 14 days at 37° C. in a 5% CO2 atmosphere in Petri dishes (5 ml per dish) with the addition of different concentrations of the plant extracts to be tested.
The kinetics of the collagen gel […] was determined 2 to 3 times per week by measuring two perpendicular diameters on each collagen gel using a microscope with an image analysis system. The size of the area is shown in cm^2 in Table 8. After incubation for 14 days, the density of the collagen gel was determined by image analysis with a light source of visible light, by comparatively analyzing different gray stages. This is a relative determination of the density (0=clear or white and 1=black), which cannot be given a unit.
After an incubation period of 7 and 14 days, biopsies (tissue samples) were taken and histological sections of the collagen gel containing human fibroblasts were obtained. The synthesis of macromolecules was analyzed and quantified by the staining of glycosaminoglycan with PAS Alcian blue, for example from SIGMA, by the periodic acid-Schiff method (PAS) described in: Mowry R W, Anal. NY Adad. Sci. 106 Art 2, 402, 1963. The stimulation of the synthesis of macromolecules was evaluated in the immediate vicinity of fibroblasts. This zone is also referred to as the “perifibroblast area”.
The “perifibroblast” secretion, or the secretion of fibroblasts into the periphery, was quantified by an image analyzer by means of a microscope. Reactive structures in the “perifibroblast area” were detected, and the different gray stages were comparatively determined. The values of the gray stages were thereby subdivided from 0=white to 255=black. These parameters are directly proportional to the intensity of the synthesis of macromolecules and thus to the GAG content of the fibroblasts.
The results of the values of these parameters are shown in Table 3 below and are to be regarded directly as representative values for the synthesis activity of the fibroblasts. The content of GAGs is described as a relative value of the gray stage.

[4] = test system: glucose-6-phosphate dehydrogenase (G6PDH); assay: G6PDH activity on human fibroblasts (enzymatic method of Okada); assay type: cell-based; details: for G6PDH after 3 d / G6PDH after 6 d: conc. 0.001 % w/v, compared to blank sample = 100
Excerpt: The enzyme glucose-6-phosphate dehydrogenase (G6PDH) catalyzes the first step of the so-called “pentose pathway”, in which an important DNA component, namely deoxyribose, is formed. Glucose 6-phosphate (G6P) is thereby converted into 6-phosphogluconate (6PG) by means of G6PDH. At the same time, the coenzyme NADP required thereby is reduced to NADPH2, which in turn is able to catalyze a large number of other biological reactions such as, for example, the recycling of glutathione or lipid synthesis. Reduced glutathione protects many enzymes which have SH groups and cells against oxidative stress, such as, for example, the action of UV. The G6PDH content is thus an important parameter for cell protection and skin renewal. G6PDH activity was determined in vitro on human fibroblasts by the enzymatic method of Okada, while the DNA content was determined by the Desaulniers method. The results of 3 series of measurements with triple determination are given in %-rel. compared to a blank sample.

pancreas elastase = pancreas elastase (Sus scrofa, UniProt P00772); assay: Inhibition of elastase activity; assay type: biochemical; details: 0.3% by weight; 30 minutes at room temperature; relative to control = 0%
pancreas elastase, sequence (P00772 27-266): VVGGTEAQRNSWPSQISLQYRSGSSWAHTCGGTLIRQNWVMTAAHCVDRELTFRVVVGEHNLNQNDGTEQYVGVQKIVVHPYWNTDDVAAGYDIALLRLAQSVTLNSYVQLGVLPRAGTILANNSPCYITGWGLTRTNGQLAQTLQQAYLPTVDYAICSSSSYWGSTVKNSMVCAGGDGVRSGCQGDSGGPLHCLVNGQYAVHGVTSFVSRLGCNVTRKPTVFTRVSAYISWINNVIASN
Procedure: In order to determine the effectiveness of the plant extract in inhibiting the release of elastase, pancreas elastase (a serine protease) was studied and, as substrate, elastin was labeled with a chromogenic synthetic substrate. The system was incubated with the active ingredients for 30 minutes at room temperature and then, after centrifugation, the optical density of the dye at 410 nm was determined. The amount of extracts used was 0.3% by weight. The results are given relative to a control as standard (=0%); a1-antitrypsin was used as the standard.

type I collagen = assay: Inhibition of the glycation of collagen (Schiff's bases, fluorescence at 430 nm); assay type: biochemical; details: with glucose, 21 days at 45° C.; control with glucose 100, control without glucose 46
Procedure: The suspensions were then centrifuged and the content of Schiff's bases in the supernatant liquid was determined by fluorescence measurement at 430 nm. The results are again based on the control as standards (without extract and without glucose).

[5] = Membran & Cell Biol. 12(1), p. 89-99 (1998); cited from earlier work
[6] = Biochem. J. 264(3), p. 863-869 (1989); cited from earlier work

Row | Structure (SMILES) | Content of DNA fragments [1] [%] | Cell count [1] [%] | DNA after 3 d (human fibroblasts [2]) [%-rel.] | DNA after 6 d (human fibroblasts [2]) [%-rel.] | Area 7 days (human fibroblasts [3]) [cm2] | Area 14 days (human fibroblasts [3]) [cm2] | Density 14 days (human fibroblasts [3]) | GAG content 7 days (human fibroblasts [3]) | GAG content 14 days (human fibroblasts [3]) | G6PDH after 3 d [4] [%-rel.] | G6PDH after 6 d [4] [%-rel.] | Elastase inhibition (pancreas elastase) [%] | Inhibition of the glycation of collagen (type I collagen) [%] | apoptosis and content of free DNA fragments in the cytoplasm (in words) ([1]; human cell cultures) | capture of alpha-beta-unsaturated aldehydes [5] | G6PDH activity (in words) [4] | capture of ROS [6]
1 | C[N+](C)(C)C[C@H](O)CC(=O)O.[Cl-] [Carnitine*HCl] | 88 | 118 | 106 | 118 | 9.9 | 5.8 | 0.25 | 11.8 | 13.3 | 104 | 109 | 28 | 65 |  |  |  | 
2 | NCCC(=O)N[C@@H](Cc1cnc[nH]1)C(=O)O [carnosine] |  |  |  |  |  |  |  |  |  |  |  |  |  | counteracts apoptosis | able to capture alpha-beta-unsaturated aldehydes | increases the activity of G6PDH production | capable of capturing ROS
3 | NCCC(=O)N[C@@H](Cc1cnc[nH]1)C(=O)O [L-Carnosine] | 85 | 129 | 111 | 120 | 10.1 | 6.0 | 0.25 | 12.1 | 15.1 | 105 | 109 | 32 | 68 |  |  |  | 
4 | CCCCCCOC(=O)c1ccccc1C(=O)c1ccc(N(CC)CC)cc1O [Uvinul A, 2-(4-diethylamino-2-hydroxybenzoyl)-benzoic acid hexyl ester, reference compound] |  |  | 97 | 93 |  |  |  |  |  | 88 | 81 |  |  |  |  |  | 
5 | CCCCC(CC)COC(=O)C(C#N)=C(c1ccccc1)c1ccccc1 (centres unmarked) [Octocrinyl, reference compound] |  |  | 95 | 90 |  |  |  |  |  | 89 | 85 |  |  |  |  |  | 
